Experimental data published in ChEMBL document CHEMBL1149494, “Synthesis and structure-activity relationships of retro bis-aminopyrrolidine urea (rAPU) derived small-molecule antagonists of the melanin-concentrating hormone receptor-1 (MCH-R1). Part 2” (Bioorg Med Chem Lett, 2006).

What was measured:
Assay type in all cases: ADME, organism-based
Rattus norvegicus [1] = species on record: Rattus norvegicus; assay: Drug level in rat plasma; settings: in vivo
[2] = Ratio of drug level in rat brain against plasma; settings: brain and plasma, read-out: BPR
Rattus norvegicus [3] = species on record: Rattus norvegicus; assay: Drug level in rat brain; settings: in vivo

Drug uptake (Rattus norvegicus [1]) [ng/g]	Kp [2]	Drug uptake (Rattus norvegicus [3]) [ng/g]	SMILES
14.5	0.4	5.1	CCc1ccc(-c2ccc(C(=O)N(C)[C@H]3CCN(C(=O)N4CC[C@@H](NC5CCOCC5)C4)C3)cc2)cc1
6.7	3.4	21.8	CCc1ccc(-c2ccc(C(=O)N(C)[C@H]3CCN(C(=O)N4CC[C@@H](N(C)C5CCOCC5)C4)C3)s2)cc1
6.2	6.5	38.3	CCc1ccc(-c2ccc(C(=O)N(C)[C@H]3CCN(C(=O)N4CC[C@@H](N5CCCCC5)C4)C3)cc2)cc1
30.5	0.6	17.3	CCc1ccc(-c2ccc(C(=O)N(C)[C@H]3CCN(C(=O)N4CC[C@@H](NC5CCOCC5)C4)C3)s2)cc1
